For nine compounds, AC50 and IC50 results are on record in ChEMBL document CHEMBL1201862, “PubChem BioAssay data set” (2004).

The nature of assay [1]: toxicity toward immortalized ovarian surface epithelium – cell-based, plate reader, dry powder samples, cytotoxicity control for PAX8 inhibitor project, dose response (AID 743045). It is filed as functional.
A short description of assay [2]: OVCAR8 cell viability loss – plate reader, dry powder samples, PAX8 project, dose response (AID 743197). It is filed as functional, cell-based. The conditions noted are these: OVCAR-8.
A short description of assay [3]: OVCAR-3 cell viability loss – plate reader, dry powder samples, PAX8 inhibitor project, dose response (AID 743044). Type of assay: functional, cell-based.
The nature of assay [4]: A2780 cell killing – plate reader, dry powder samples, cytotoxicity control, dose response (AID 743046). Type of assay: functional, cell-based.
Assay [5] is described as follows: viability loss in MITF-independent A375 cells – cell-based, CellTiter-Glo luminescence, dry powder, set 2, counter-screen for MITF inhibitor project, dose response (AID 624489).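 Further: actives are compounds lowering A375 viability meaning general cytotoxicity.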 It is filed as functional. As to conditions: A-375.
Assay [6] can be described thus: cytotoxicity in MITF-independent A375 cells – cell-based, CellTiter-Glo luminescence, dry powder, set 4, counter-screen for MITF inhibitor project, dose response (AID 624364).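 Further: A375 melanoma cells are MITF independent so this is a counter screen.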 Type of assay: functional. The conditions noted are these: A-375.
Assay [7] in a line: Late stage assay provider results from the probe development effort to identify inhibitors of the Plasmodium falciparum M18 Aspartyl Aminopeptidase (M18AAP): radiolabel-based cell-based dose response assay to identify compounds that inhibit P. falciparum growth in RBCs, Set 2.. Type of assay: functional.
The target in assay [8] is E3 ubiquitin-protein ligase UHRF1 (Homo sapiens, UniProt Q96T88). The experiment in a line: Counterscreen for inhibitors of 5-meCpG-binding domain protein 2 (MBD2): TRFRET-based biochemical high throughput dose response assay to identify inhibitors of binding of ubiquitin-like with PHD and ring finger domains 1 (UHRF1) to methylated oligonucleotide. For orientation: The purpose of a counterscreen is to sort out artefacts and off-target activity.

Assay [9] concerns the target T1, Fibrinogen beta chain (Homo sapiens, UniProt P02675). The experiment in a line: Fluorescence polarization-based biochemical high throughput dose response assay to identify inhibitors that disrupt the binding of a cyclic peptide (Tn6) to the fibrin proteolytic product D-Dimer and fragment E complex [DD(E )]. Background: Polarisation of emitted light reports the rotation of a fluorescent probe.

For assay [10], the target named is T2, Rac GTPase-activating protein 1 (Homo sapiens, UniProt Q9H0H5).
T2 sequence (Q9H0H5 whole entry): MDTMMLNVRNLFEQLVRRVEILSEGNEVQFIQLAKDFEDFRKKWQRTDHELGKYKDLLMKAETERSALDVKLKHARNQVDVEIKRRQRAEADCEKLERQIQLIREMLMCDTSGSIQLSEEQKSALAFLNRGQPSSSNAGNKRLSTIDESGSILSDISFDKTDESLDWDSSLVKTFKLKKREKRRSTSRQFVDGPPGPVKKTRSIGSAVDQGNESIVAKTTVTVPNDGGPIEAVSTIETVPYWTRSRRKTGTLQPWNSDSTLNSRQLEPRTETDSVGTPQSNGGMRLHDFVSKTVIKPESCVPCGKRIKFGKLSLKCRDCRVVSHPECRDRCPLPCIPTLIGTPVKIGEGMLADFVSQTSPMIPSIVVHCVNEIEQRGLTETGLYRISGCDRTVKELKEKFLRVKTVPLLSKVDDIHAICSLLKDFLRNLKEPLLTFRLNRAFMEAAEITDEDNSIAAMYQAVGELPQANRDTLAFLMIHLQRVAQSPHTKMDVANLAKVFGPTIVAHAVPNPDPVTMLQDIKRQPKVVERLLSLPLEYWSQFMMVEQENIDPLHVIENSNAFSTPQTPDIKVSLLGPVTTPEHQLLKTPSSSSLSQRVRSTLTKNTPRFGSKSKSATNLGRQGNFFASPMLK
The experiment in a line: blockers of MgcRacGAP-driven Rac1 GTP hydrolysis – biochemical, ADP Hunter fluorescence, primary and confirmatory, confirmation (AID 624330). Type of assay: functional.

Assay [11] addresses T1, Fibrinogen beta chain. Description: Fluorescence polarization-based biochemical high throughput dose response assay to identify inhibitors that disrupt the binding of a cyclic peptide (Tn7) to the fibrin proteolytic product D-Dimer and fragment E complex [DD(E )].
Assay [12] in a line: viability loss in HepG2 hepatoma cells – cell-based, ATP luminescence, dry powder, set 2, cytotoxicity control, dose response (AID 743129). Type of assay: functional.
Assay [13] in a line: viability loss in HEK293T cells – cell-based, ATP luminescence, dry powder, set 3, cytotoxicity control, dose response (AID 743131). Type of assay: functional. As to conditions: HEK293.
The target in assay [14] is G-protein coupled receptor 183 (Homo sapiens, UniProt P32249). The experiment in a line: SAR confirmation of small molecule antagonists of the EBI2 receptor via a luminescent beta-arrestin assa. It is filed as functional.
The target in assay [15] is Protein disulfide-isomerase (Homo sapiens, UniProt P07237). The experiment in a line: inhibition of PDI-driven insulin aggregation – biochemical, turbidity, absorbance, cherry-picked samples, dose response (AID 602350). Type of assay: functional.
The next assay has as its target ELAV-like protein 1 (Homo sapiens, UniProt Q15717). Description: Identify HuR specific inhibitors. It is filed as functional.
The target in assay [16] is DNA (cytosine-5)-methyltransferase 1 (Homo sapiens, UniProt P26358). The experiment in a line: inhibition of DNA methylation by DNMT1 – biochemical, fluorescent molecular beacon, confirmation (AID 602386). Type of assay: functional.
The next assay is described as follows: cells. Type of assay: functional, cell-based. As to conditions: INS-1E.
The target in assay [17] is T3, DNA repair protein RAD52 homolog (Homo sapiens, UniProt P43351).
T3 sequence (P43351 whole entry): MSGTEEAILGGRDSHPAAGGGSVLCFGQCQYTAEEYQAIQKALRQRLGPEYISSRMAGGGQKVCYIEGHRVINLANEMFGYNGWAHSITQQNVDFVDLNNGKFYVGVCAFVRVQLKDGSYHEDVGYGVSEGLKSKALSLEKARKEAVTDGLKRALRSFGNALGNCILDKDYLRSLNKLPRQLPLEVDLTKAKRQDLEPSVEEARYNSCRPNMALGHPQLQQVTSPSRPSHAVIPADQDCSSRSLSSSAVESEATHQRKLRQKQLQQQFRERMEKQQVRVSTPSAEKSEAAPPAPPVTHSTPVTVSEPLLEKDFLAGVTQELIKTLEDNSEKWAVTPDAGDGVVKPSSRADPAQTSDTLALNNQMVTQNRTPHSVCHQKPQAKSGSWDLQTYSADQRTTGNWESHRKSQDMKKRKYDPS
Type of assay: functional, biochemical.

Assay [18] can be described thus: IC50 of insulin release inhibition, rat insulinoma INS-1E line, 5 mM glucose, cell-based (AID 1117331). Type of assay: functional.

Structures can show the parent of a compound that is named as a salt. The source made the active and inactive calls.

T1 sequence (P02675 whole entry, the tested form may be a part): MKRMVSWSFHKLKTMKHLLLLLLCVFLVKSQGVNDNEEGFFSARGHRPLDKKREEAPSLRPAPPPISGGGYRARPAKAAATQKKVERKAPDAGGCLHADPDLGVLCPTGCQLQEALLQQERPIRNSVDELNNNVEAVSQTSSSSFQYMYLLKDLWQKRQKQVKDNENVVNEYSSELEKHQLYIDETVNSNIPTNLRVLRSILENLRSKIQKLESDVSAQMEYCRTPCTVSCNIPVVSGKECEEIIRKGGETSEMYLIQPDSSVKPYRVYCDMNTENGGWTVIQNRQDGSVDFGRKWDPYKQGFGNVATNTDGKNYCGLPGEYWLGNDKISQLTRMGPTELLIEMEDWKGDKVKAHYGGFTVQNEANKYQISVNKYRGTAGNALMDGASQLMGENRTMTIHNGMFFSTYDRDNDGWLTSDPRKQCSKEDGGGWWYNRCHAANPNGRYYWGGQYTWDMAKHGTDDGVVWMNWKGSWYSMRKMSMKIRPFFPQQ
Sequence of G-protein coupled receptor 183 (P32249 whole entry): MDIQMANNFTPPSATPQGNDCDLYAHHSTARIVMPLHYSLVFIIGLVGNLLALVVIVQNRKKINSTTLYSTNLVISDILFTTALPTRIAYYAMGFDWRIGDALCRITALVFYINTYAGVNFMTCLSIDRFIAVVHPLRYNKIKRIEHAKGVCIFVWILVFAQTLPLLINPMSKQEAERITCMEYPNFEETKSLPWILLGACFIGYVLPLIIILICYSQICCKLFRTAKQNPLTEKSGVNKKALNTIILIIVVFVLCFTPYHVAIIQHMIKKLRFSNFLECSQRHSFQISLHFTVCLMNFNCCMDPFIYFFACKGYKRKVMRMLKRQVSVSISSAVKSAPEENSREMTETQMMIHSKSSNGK
Sequence of Protein disulfide-isomerase (P07237 whole entry): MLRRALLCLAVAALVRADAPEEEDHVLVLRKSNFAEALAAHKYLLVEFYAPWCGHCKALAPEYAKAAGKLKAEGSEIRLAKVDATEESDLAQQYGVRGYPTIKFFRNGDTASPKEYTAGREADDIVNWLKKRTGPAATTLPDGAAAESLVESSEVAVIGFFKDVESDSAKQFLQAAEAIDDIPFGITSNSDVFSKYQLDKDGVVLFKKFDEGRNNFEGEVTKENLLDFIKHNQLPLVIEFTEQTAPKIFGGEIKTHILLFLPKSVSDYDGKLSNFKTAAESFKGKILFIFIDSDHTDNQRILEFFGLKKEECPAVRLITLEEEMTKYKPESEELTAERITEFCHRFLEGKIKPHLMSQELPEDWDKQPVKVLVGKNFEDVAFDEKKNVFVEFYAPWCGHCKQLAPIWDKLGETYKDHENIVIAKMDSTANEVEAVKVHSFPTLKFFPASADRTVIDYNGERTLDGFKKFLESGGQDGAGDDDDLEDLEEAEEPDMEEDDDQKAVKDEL
Sequence of ELAV-like protein 1 (Q15717 whole entry): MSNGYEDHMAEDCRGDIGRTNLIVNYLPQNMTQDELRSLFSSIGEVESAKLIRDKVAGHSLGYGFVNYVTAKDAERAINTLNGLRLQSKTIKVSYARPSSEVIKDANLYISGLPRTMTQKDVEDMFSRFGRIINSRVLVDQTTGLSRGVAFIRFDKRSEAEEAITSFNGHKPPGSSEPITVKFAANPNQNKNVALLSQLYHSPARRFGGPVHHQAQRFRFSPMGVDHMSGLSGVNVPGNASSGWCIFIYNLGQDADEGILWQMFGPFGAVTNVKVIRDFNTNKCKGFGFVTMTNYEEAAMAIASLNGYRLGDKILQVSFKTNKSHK
Sequence of DNA (cytosine-5)-methyltransferase 1 (P26358 whole entry): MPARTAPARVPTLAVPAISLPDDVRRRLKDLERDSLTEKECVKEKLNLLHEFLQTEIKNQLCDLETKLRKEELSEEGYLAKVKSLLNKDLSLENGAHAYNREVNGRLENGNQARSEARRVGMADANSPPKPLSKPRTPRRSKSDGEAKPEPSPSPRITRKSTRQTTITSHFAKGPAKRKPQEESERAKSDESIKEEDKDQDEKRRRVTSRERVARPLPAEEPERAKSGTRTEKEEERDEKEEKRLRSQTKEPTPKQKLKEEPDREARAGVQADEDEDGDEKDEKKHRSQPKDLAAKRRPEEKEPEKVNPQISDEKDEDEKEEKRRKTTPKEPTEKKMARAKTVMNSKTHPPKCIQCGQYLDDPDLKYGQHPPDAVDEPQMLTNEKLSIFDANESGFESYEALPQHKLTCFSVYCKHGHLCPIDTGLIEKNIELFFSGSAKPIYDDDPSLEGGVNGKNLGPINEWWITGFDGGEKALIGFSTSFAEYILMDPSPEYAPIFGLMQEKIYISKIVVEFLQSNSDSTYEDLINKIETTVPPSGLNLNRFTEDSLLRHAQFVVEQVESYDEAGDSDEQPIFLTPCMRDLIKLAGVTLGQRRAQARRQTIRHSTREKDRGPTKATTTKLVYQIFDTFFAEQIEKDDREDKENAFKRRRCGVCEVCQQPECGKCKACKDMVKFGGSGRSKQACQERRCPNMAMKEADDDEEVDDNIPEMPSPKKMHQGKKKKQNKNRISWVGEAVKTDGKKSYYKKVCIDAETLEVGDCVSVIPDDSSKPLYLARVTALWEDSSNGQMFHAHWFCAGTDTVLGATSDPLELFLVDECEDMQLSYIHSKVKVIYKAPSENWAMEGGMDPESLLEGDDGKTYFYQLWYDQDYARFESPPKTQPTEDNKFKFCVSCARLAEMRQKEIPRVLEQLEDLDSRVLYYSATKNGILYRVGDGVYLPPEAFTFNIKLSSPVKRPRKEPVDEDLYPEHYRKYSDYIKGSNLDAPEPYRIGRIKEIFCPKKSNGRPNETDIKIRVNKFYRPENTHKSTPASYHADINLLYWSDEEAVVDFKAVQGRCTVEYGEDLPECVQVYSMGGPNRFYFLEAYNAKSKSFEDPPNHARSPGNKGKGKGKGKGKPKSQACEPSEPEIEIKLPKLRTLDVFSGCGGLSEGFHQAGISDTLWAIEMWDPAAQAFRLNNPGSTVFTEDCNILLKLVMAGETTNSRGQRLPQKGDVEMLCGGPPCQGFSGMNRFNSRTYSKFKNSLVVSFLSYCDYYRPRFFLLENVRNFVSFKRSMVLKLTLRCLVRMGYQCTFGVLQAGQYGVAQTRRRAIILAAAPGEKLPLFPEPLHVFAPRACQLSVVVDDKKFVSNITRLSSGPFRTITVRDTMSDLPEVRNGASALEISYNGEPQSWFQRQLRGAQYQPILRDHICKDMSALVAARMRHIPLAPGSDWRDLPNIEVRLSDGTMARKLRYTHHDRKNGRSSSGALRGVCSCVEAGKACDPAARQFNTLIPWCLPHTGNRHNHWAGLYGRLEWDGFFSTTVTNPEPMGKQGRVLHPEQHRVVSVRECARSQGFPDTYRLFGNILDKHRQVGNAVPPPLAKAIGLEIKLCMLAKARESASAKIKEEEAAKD
Sequence of E3 ubiquitin-protein ligase UHRF1 (Q96T88 whole entry, the tested form may be a part): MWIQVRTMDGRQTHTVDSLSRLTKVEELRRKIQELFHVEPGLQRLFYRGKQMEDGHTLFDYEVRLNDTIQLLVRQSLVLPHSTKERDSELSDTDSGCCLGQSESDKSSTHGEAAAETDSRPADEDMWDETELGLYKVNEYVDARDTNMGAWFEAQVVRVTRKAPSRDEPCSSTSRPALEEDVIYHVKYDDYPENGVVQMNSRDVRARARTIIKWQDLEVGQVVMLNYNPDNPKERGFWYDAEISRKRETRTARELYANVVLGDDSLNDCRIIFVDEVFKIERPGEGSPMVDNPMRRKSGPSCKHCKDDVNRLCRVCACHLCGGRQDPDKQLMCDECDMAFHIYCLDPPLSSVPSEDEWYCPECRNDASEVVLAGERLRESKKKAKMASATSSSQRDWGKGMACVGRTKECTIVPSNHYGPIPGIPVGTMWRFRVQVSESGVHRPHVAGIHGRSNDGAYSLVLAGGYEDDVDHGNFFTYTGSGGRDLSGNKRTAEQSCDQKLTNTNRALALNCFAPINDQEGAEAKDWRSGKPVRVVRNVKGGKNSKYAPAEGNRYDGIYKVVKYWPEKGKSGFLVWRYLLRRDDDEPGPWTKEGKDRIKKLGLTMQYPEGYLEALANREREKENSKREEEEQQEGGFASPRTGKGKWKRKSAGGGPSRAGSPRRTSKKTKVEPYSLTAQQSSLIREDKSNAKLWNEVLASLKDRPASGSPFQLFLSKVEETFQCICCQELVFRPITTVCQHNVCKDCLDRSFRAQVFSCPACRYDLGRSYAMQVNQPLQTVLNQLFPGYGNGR

For `O=C(Nc1ccccc1)N1CCCCN2[C@@H](CO)[C@@H](c3ccc(C#Cc4ccccc4)cc3)[C@@H]2C1`, the AC50 (usually the concentration giving half of the maximal activity seen) in assay [1] is 19.3 µM (active); in [2], 17.5 µM (active); in assay [3] it was 7.13 µM (active); in [4] it was 13.7 µM (active).
`COc1ccc(C(=O)NC2=C(c3ccccc3)C(=O)c3ccccc3C2=O)cc1`: the AC50 in assay [5] is 20.9 µM (active); in assay [6], 40.6 µM (active).
For `Cc1cccc2c(NCCc3ccc(O)c(O)c3)ccnc12`, in assay [7], the IC50 – broadly, the midpoint of a concentration-inhibition curve – was 4.7 µM (active).
`CC(=O)Nc1sc2c(c1-c1nc3ccccc3s1)CN(C(C)C)C2`: the IC50 in assay [8] was > 43.8 µM (inactive).
As to `CCC/C(=N\c1ccc(N)cc1)C1=C(O)C(C(=O)OC)C(C)(C)CC1=O` (stereo not given), the values for the IC50 (at Fibrinogen beta chain [9]; in [10]; at Fibrinogen beta chain [11]) were > 83.3 µM (inactive), 9.5 µM (active) and > 83.3 µM (inactive), respectively.
As for `CCOC(=O)c1c(NC(=O)CNCCN(C)C)sc(C)c1-c1ccccc1`, the AC50 in assay [12] was > 52 µM (inactive); in assay [13] it was 7.22 µM (active).
For `O=C(/C=C/c1ccc(F)cc1)N1CCN(S(=O)(=O)c2cccc(F)c2)CC1`, the IC50 in [14] is 0.0196 µM (active).
In the case of `COC(=O)CC1OCC=C2CN3CCC45C6=CC(=O)C(=O)C([N+](=O)[O-])=C6NC4C1C2CC35` (stereo not given), the concentration at half-maximal activity (AC50) in assay [15] was 8.03 µM (active). Moreover, the IC50 is 69.6 µM (inactive) on ELAV-like protein 1 and 6.06 µM (active) in [16].
For `CCC(=O)c1ccc2c(c1)N(CCCN(C)C)c1ccccc1S2` [PROPIONYLPROMAZINE HYDROCHLORIDE], the IC50 in the assay “cells” is > 33.3 µM (inactive); in assay [18], 10.7 µM (inactive). In addition, in assay [17], the AC50 is 31.4 µM (active).
